Source: ChEMBL document CHEMBL5550161, “Discovery of novel small molecules targeting the USP21/JAK2/STAT3 axis for the treatment of triple-negative breast cancer” (Eur J Med Chem, 2024)
Activity calls are given as the source filed them. The calls are words filed in the database; no cut-off is given here.

Assays:
MDA-MB-231 [1] = experiment: Anti-proliferative activity against human MDA-MB-231 cells assessed as cell growth inhibition incubated for 72 hrs by MTT assay; assay type: functional, cell-based; conditions: MDA-MB-231, 72 h
MDA-MB-231 [2] = experiment: Anti-proliferative activity against human MDA-MB-231 cells assessed as reduction in EdU-positive cells at 0.2 uM; assay type: functional, cell-based
MDA-MB-231 [3] = experiment: Induction of apoptosis in human MDA-MB-231 cells assessed as viable cells at 0.1 uM incubated for 24 hrs by Annexin V-FITC/PI staining based flow cytometry (reference value: 97.54 %); assay type: functional; conditions: read-out: Activity
MDA-MB-231 [4] = experiment: Induction of apoptosis in human MDA-MB-231 cells assessed as late apoptotic cells at 0.1 uM incubated for 24 hrs by Annexin V-FITC/PI staining based flow cytometry (reference value: 1.23 %); assay type: functional
MDA-MB-231 [5] = experiment: Induction of apoptosis in human MDA-MB-231 cells assessed as necrotic cells at 0.1 uM incubated for 24 hrs by Annexin V-FITC/PI staining based flow cytometry (reference value: 0.07 %); assay type: functional
MDA-MB-231 [6] = experiment: Induction of apoptosis in human MDA-MB-231 cells assessed as early apoptotic cells at 0.2 uM incubated for 24 hrs by Annexin V-FITC/PI staining based flow cytometry (reference value: 1.16 %); assay type: functional
MDA-MB-231 [7] = experiment: Induction of apoptosis in human MDA-MB-231 cells assessed as viable cells at 0.4 uM incubated for 24 hrs by Annexin V-FITC/PI staining based flow cytometry (reference value: 97.54 %); assay type: functional; conditions: read-out: Activity
MDA-MB-231 [8] = experiment: Induction of apoptosis in human MDA-MB-231 cells assessed as late apoptotic cells at 0.4 uM incubated for 24 hrs by Annexin V-FITC/PI staining based flow cytometry (reference value: 1.23 %); assay type: functional
MDA-MB-231 [9] = experiment: Induction of apoptosis in human MDA-MB-231 cells assessed as necrotic cells at 0.4 uM incubated for 24 hrs by Annexin V-FITC/PI staining based flow cytometry (reference value: 0.07 %); assay type: functional
MDA-MB-231 [10] = experiment: Induction of apoptosis in human MDA-MB-231 cells assessed as late apoptotic cells at 0.8 uM incubated for 24 hrs by Annexin V-FITC/PI staining based flow cytometry (reference value: 1.23 %); assay type: functional
MDA-MB-231 [11] = experiment: Induction of apoptosis in human MDA-MB-231 cells assessed as necrotic cells at 0.8 uM incubated for 24 hrs by Annexin V-FITC/PI staining based flow cytometry (reference value: 0.07 %); assay type: functional
MDA-MB-231 [12] = experiment: Induction of apoptosis in human MDA-MB-231 cells assessed as viable cells at 1.6 uM incubated for 24 hrs by Annexin V-FITC/PI staining based flow cytometry (reference value: 97.54 %); assay type: functional; conditions: read-out: Activity
HCC1806 [13] = experiment: Induction of apoptosis in human HCC1806 cells assessed as early apoptotic cells at 0.2 uM incubated for 24 hrs by Annexin V-FITC/PI staining based flow cytometry (reference value: 0.67 %); assay type: functional
HCC1806 [14] = experiment: Induction of apoptosis in human HCC1806 cells assessed as viable cells at 0.4 uM incubated for 24 hrs by Annexin V-FITC/PI staining based flow cytometry (reference value: 98.95 %); assay type: functional; conditions: read-out: Activity
HCC1806 [15] = experiment: Induction of apoptosis in human HCC1806 cells assessed as early apoptotic cells at 0.4 uM incubated for 24 hrs by Annexin V-FITC/PI staining based flow cytometry (reference value: 0.67 %); assay type: functional
HCC1806 [16] = experiment: Induction of apoptosis in human HCC1806 cells assessed as late apoptotic cells at 0.8 uM incubated for 24 hrs by Annexin V-FITC/PI staining based flow cytometry (reference value: 0.23 %); assay type: functional
HCC1806 [17] = experiment: Induction of apoptosis in human HCC1806 cells assessed as viable cells at 1.6 uM incubated for 24 hrs by Annexin V-FITC/PI staining based flow cytometry (reference value: 98.95 %); assay type: functional; conditions: read-out: Activity
MDA-MB-231 [18] = experiment: Induction of apoptosis in human MDA-MB-231 cells assessed as ROS production rate at 0.1 uM incubated for 24 hrs by DCFH-DA staining based flow cytometry (reference value: 0.28 %); assay type: functional
MDA-MB-231 [19] = experiment: Induction of apoptosis in human MDA-MB-231 cells assessed as ROS production rate at 0.4 uM incubated for 24 hrs by DCFH-DA staining based flow cytometry (reference value: 0.28 %); assay type: functional
HCC1806 [20] = experiment: Induction of apoptosis in human HCC1806 cells assessed as ROS production rate at 0.1 uM incubated for 24 hrs by DCFH-DA staining based flow cytometry (reference value: 0.23 %); assay type: functional
MDA-MB-231 [21] = experiment: Induction of apoptosis in human MDA-MB-231 cells assessed as decrease in JAK1 level by Western blot analysis; assay type: functional, cell-based; conditions: dose 0.1-0.4 µM
MDA-MB-231 [22] = experiment: Induction of apoptosis in human MDA-MB-231 cells assessed as decrease in JAK2 level by Western blot analysis; assay type: functional, cell-based; conditions: dose 0.1-0.4 µM
MDA-MB-231 [23] = experiment: Induction of apoptosis in human MDA-MB-231 cells assessed as decrease in STAT3 level by Western blot analysis; assay type: functional, cell-based; conditions: dose 0.1-0.4 µM
HCC1806 [24] = experiment: Induction of apoptosis in human HCC1806 cells assessed as decrease in JAK1 level by Western blot analysis; assay type: functional, cell-based; conditions: dose 0.1-0.4 µM
HCC1806 [25] = experiment: Induction of apoptosis in human HCC1806 cells assessed as decrease in STAT3 level by Western blot analysis; assay type: functional, cell-based; conditions: dose 0.1-0.4 µM
HCC1806 [26] = experiment: Induction of apoptosis in human HCC1806 cells assessed as decrease in Bcl-2 level by Western blot analysis; assay type: functional, cell-based; conditions: dose 0.1-0.4 µM
[27] = target: Tyrosine-protein kinase JAK2 (Homo sapiens, UniProt O60674); experiment: Induction of JAK2 degradation in Carfilzomib-treated human HCC1806 cells at 0.4 uM incubated for 24 hrs by Western blot analysis; assay type: cell-based
[28] = Toxicity in Balb/c nude mouse assessed as behavioural changes at 60 mg/kg, ip bid for 14 days consecutively; assay type: organism-based; conditions: in vivo, 336 h, time 14 day
[29] = Tmax in Sprague-Dawley rat at 4 mg/kg, ip; assay type: ADME, organism-based; conditions: in vivo
[30] = Cmax in Sprague-Dawley rat at 4 mg/kg, ip; assay type: ADME, organism-based; conditions: in vivo
[31] = Toxicity in Balb/c nude mouse assessed as histopathological change in spleen at 60 mg/kg, ip bid for 14 days consecutively; assay type: organism-based; conditions: in vivo, 336 h, time 14 day
HCC1806 [32] = experiment: Antitumor activity against human HCC1806 cells xenografted in Balb/c mouse assessed as reduction in tumor volume at 40 to 60 mg/kg, ip bid measured after 14 days; assay type: functional, organism-based; conditions: dose 40-60 mg/kg, time 14.0 day
HCC1806 [33] = experiment: Antitumor activity against human HCC1806 cells xenografted in Balb/c mouse assessed as decrease in STAT3 level at 40 to 60 mg/kg, ip bid measured after 14 days by immunofluorescence based analysis; assay type: functional, organism-based; conditions: dose 40-60 mg/kg, time 14.0 day
HCC1806 [34] = experiment: Antitumor activity against human HCC1806 cells xenografted in Balb/c mouse assessed as decrease in Bcl-2 level at 40 to 60 mg/kg, ip bid measured after 14 days by IHC analysis; assay type: functional, organism-based; conditions: dose 40-60 mg/kg, time 14.0 day
HCC1806 [35] = experiment: Antitumor activity against human HCC1806 cells xenografted in Balb/c mouse assessed as increase in E-cadherin level at 40 to 60 mg/kg, ip bid measured after 14 days by IHC analysis; assay type: functional, organism-based; conditions: dose 40-60 mg/kg, time 14.0 day
HCC1806 [36] = experiment: Synergistic inhibition of cell proliferation in human HCC1806 cells assessed as combination index at 0.35 uM in presence of PTX; assay type: functional

Sequence of Tyrosine-protein kinase JAK2 (O60674 whole entry): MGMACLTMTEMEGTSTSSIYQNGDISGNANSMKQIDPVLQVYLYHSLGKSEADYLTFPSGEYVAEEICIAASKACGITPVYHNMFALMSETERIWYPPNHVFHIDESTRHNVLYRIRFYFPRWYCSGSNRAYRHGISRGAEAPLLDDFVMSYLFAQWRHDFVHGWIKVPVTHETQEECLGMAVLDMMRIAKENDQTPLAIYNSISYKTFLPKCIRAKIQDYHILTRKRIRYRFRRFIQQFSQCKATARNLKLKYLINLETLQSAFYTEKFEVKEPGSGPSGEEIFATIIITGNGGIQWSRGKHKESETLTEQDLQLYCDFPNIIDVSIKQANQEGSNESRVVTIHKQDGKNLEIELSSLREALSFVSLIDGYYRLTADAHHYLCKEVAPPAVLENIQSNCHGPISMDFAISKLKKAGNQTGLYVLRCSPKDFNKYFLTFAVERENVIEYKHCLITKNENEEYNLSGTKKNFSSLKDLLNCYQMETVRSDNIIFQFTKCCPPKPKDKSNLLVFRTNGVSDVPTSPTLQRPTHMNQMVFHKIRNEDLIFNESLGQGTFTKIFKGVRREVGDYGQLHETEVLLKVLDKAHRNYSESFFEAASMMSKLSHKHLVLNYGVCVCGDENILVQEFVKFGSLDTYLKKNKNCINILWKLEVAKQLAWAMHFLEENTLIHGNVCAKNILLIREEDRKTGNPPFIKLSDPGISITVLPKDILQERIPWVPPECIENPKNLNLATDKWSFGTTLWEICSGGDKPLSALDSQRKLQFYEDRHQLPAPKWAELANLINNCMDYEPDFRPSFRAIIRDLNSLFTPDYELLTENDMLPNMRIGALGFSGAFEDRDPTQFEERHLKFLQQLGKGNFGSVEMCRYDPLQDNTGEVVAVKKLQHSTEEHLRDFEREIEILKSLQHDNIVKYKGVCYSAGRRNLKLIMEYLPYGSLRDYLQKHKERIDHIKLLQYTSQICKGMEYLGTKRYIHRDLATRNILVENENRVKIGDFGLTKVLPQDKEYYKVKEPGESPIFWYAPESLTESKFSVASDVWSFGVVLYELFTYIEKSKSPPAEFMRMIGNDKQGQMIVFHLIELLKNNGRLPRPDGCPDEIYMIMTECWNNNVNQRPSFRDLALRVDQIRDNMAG

In the case of `COc1cc(Nc2cc(F)ccc2C(=O)NCCc2c[nH]c3c(F)ccc(F)c23)cc(OC)c1OC`, the IC50 (MDA-MB-231 [1]) is reported as 190 nM, the Activity (MDA-MB-231 [2]) is reported as “Active” and the viability at 0.1 µM (MDA-MB-231 [3]) is reported as 96.9%. For the same molecule, the Activity (MDA-MB-231 [4]) was 1.23%, the Activity (MDA-MB-231 [5]) was 0.19% and the Activity (MDA-MB-231 [6]) was 1.99%. The viability at 0.4 µM (MDA-MB-231 [7]) was 95.7%, the Activity (MDA-MB-231 [8]) was 1.83% and the Activity (MDA-MB-231 [9]) was 0.14%. It also gave an Activity (MDA-MB-231 [10]) of 2.15%, an Activity (MDA-MB-231 [11]) of 0.11% and a viability at 1.6 µM (MDA-MB-231 [12]) of 87.4%. For the same molecule, the Activity (HCC1806 [13]) was 1.13%, the viability at 0.4 µM (HCC1806 [14]) was 96% and the Activity (HCC1806 [15]) was 2.94%. The Activity (HCC1806 [16]) was 1.48%, the viability at 1.6 µM (HCC1806 [17]) was 92.9% and the Activity (MDA-MB-231 [18]) was 0.61%. The Activity (MDA-MB-231 [19]) was 3.17%, the Activity (HCC1806 [20]) was 0.66% and the Activity (MDA-MB-231 [21]) was “Active”. For the same molecule, the Activity (MDA-MB-231 [22]) was “Active”, the Activity (MDA-MB-231 [23]) was “Active” and the Activity (HCC1806 [24]) was “Active”. The Activity (HCC1806 [25]) was “Active”, the Activity (HCC1806 [26]) was “Active” and the Activity [27] was “Active”. For the same molecule, the Activity [28] was “Non-Toxic”, the Tmax [29] was 2.67 h and the Cmax [30] was 229 ng/mL. The Activity [31] was “Non-Toxic”, the Activity (HCC1806 [32]) was “Active” and the Activity (HCC1806 [33]) was “Active”. For the same molecule, the Activity (HCC1806 [34]) was “Active”, the Activity (HCC1806 [35]) was “Active” and the CI (HCC1806 [36]) was less than 1.
